Entries after “also recorded” stand apart in the source; their conditions may differ.
What was measured:
hESC [1] = assay: aggregate formation from hESC cultured on Matrigel after BMP pre-differentiation; assay type: cell-based, human; settings: 50 ng/mL BMP4 pre-differentiation, control population did not form aggregates
hESC [2] = assay: forced aggregation of hESC with or without ROCK inhibitor Y-27632; assay type: cell-based, human
Experimental: • 1. […] The precise degree of pre-differentiation that is optimal will vary with the cell line in question, exact maintenance techniques, etc. If EB coherence is still insufficient after treatment as above, pre-differentiation can be started earlier (i.e the duration increased) or (if using BMPs), BMP concentration can be increased. […] Prepare low-adsorbance well plates: • a) dispense 40 μL (for 96-well plates) or 25 μL (for 384-well plates) of 5% Pluronic acid in PBS into the plates • b) incubate 30 minutes at room temperature • c) remove pluronic acid solution by pipetting or by inverted centrifugation in the device described and illustrated in FIG. 1 or 2 for 1 minute at 240×g • 3. Prepare a single-cell suspension by treating the hESC culture with TrypIE for 5 minutes, and washing the cells off with X-Vivo10 • 4. Count cells, spin down and re-suspend to 1 million cells/mL in X-Vivo or other medium of interest. Cells may all derive from a single culture, or cells from different sources may be combined. • 5. […] In the absence of both, no aggregates were formed (N.D.—size not determined). […]

Compound | stable aggregate formation after BMP4 pre-differentiation (hESC [1]) | aggregate size and symmetry (hESC [2]; 10 μM Y-27632, hESC cultured on Matrigel, 2,000 cells per well, without or with 48 hours pre-differentiation in serum-containing medium) | SISO-aggregate formation / aggregate stability (hESC [2]; 10 μM Y-27632 added to cell suspension immediately prior to dispensing, hESC on Matrigel in MEF-conditioned medium, without or with pre-differentiation)
BMP4: bone morphogenetic protein used as growth factor for pre-differentiation | Aggregates formed from the pre-differentiated population | – | –
C[C@@H](N)[C@H]1CC[C@H](C(=O)Nc2ccncc2)CC1 [Y-27632] | – | substantially increased aggregate size and symmetry; also recorded: size and symmetry of aggregates are improved | sizeable aggregates resulted
